{"source": "patent US12172983B2", "about": "“EGFR inhibitors” (Blueprint Medicines Corporation, priority 2019, dated 2024)", "key": {"EGFR (L858R T790M C797S)": {"target": "T1, EGFR (L858R T790M C797S) (Homo sapiens, UniProt P00533, C797S/L858R/T790M)", "T1 construct": "purchased SignalChem E10-122VG", "T1 sequence (P00533 25-1210 T790M/C797S/L858R)": "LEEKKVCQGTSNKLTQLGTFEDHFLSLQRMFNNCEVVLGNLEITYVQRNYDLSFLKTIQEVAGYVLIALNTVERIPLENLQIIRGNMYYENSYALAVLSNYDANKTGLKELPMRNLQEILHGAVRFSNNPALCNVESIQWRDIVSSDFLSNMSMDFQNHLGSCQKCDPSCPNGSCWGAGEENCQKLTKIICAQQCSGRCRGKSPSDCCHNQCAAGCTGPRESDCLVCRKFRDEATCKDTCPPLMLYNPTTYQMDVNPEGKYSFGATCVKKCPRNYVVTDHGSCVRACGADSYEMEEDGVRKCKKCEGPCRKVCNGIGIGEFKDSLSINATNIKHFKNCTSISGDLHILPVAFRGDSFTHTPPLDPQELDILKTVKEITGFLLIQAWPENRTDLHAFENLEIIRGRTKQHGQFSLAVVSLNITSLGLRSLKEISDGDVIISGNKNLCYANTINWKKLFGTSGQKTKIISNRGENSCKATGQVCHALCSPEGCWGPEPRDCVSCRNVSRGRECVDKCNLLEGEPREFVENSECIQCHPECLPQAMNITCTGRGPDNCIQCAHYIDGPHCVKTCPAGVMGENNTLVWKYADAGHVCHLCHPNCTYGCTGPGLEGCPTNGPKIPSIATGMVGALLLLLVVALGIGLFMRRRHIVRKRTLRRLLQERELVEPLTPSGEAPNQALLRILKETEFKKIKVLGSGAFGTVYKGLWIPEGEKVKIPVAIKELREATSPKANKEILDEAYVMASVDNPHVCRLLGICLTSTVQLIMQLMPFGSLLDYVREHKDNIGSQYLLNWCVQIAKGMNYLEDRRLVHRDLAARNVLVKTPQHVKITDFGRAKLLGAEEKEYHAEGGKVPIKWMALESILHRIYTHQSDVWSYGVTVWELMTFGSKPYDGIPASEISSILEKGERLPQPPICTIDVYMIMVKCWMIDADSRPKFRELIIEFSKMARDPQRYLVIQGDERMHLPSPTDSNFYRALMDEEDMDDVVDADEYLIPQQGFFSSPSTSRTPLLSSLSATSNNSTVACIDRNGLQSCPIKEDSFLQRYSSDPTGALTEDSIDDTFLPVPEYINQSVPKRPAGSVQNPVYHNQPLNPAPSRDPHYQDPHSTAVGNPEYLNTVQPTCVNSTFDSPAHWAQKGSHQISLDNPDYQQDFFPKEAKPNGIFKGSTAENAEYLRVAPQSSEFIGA", "test": "Biochemical EGFR inhibition assay (Caliper mobility shift), EGFR LRTMCS mutant", "settings": "inhibitory activity against EGFR LRTMCS mutant; apparent IC50; read-out: Ext Enz LRTMCS", "in_short": "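Apparent IC50s were derived by plotting percent activity against the log of compound concentration. Activity was measured as phosphopeptide electrophoretically separated from substrate, after reactions at room temperature reached 10% to 20% phosphorylation and were halted with 35 mM EDTA.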"}, "[1]": {"system": "phosphorylation of EGFR (Tyr1068) in NCI-H1975 cell line that harbors the EGFR L858R T790M mutations", "test": "NCI-H1975 pEGFR AlphaLISA assay", "assay_type": "cell-based", "settings": "4-5 hours incubation, read-out: Ext pEGFR H1975", "in_short": "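NCI-H1975 cells (EGFR L858R/T790M) seeded overnight, then treated with compound for 4-5 h at 37 °C/5% CO2. After lysis, p-EGFR (Tyr1068) quantified by AlphaLISA SureFire Ultra with acceptor then donor beads; IC50 fitted from percent inhibition versus log concentration.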"}, "[2]": {"settings": "Homo sapiens, NCI-H1975, inhibition of phosphorylation of mutant EGFR in NCI-H1975 cells"}, "[3]": {"settings": "inhibition of phosphorylation of mutant EGFR in NCI-H1975 cells"}}, "note": "Where two headings read alike, the source gives them in different places."}
{"smiles": "CCS(=O)(=O)CC1CN(c2cccc3cc(Nc4ccnc(N5C[C@H](F)[C@H](O)C(C)(C)C5)n4)ncc23)C1", "note": "(single isomer, unassigned) [Compound 27, (4S,5R)-1-{4-[(8-{3-[(ethanesulfonyl)methyl]azetidin-1-yl}isoquinolin-3-yl)amino]pyrimidin-2-yl}-5-fluoro-3,3-dimethylpiperidin-4-ol or (4R,5S)-1-{4-[(8-{3-[(ethanesulfonyl)methyl]azetidin-1-yl}isoquinolin-3-yl)amino]pyrimidin-2-yl}-5-fluoro-3,3-dimethylpiperidin-4-ol]", "values": [{"measurement": "IC50", "setting": "EGFR (L858R T790M C797S)", "value": "≤ 15", "unit": "nM"}, {"measurement": "IC50", "setting": "[1]; [2]", "value": "10.1 to 20", "unit": "nM"}]}
{"smiles": "CO[C@@H]1[C@H](O)CN(c2nccc(Nc3cc4c(C(C)C)ccc(N5CC(CS(C)(=O)=O)C5)c4cn3)n2)CC1(F)F", "note": "(single isomer, unassigned) [Compound 218, rac-5,5-difluoro-1-[4-[[5-isopropyl-8-[3-(methylsulfonylmethyl)azetidin-1-yl]-3-isoquinolyl]amino]pyrimidin-2-yl]-4-methoxy-piperidin-3-ol]", "values": [{"measurement": "IC50", "setting": "EGFR (L858R T790M C797S)", "value": "≤ 15", "unit": "nM"}, {"measurement": "IC50", "setting": "[1]; [2]", "value": "≤ 10", "unit": "nM"}]}
{"smiles": "CCc1cnc(N2CC(CS(C)(=O)=O)C2)c2cnc(Nc3ccnc(N4CC[C@@H](O)[C@@](C)(F)C4)n3)cc12", "note": "(single isomer, unassigned) [Compound 31]", "values": [{"measurement": "IC50", "setting": "EGFR (L858R T790M C797S)", "value": "≤ 15", "unit": "nM"}, {"measurement": "IC50", "setting": "[1]; [2]", "value": "10.1 to 20", "unit": "nM"}]}
{"smiles": "CC(C)c1ccc(N2C[C@H](CS(C)(=O)=O)[C@H]2C)c2cnc(Nc3ccnc(N4CC[C@H](O)C[C@@H]4C)n3)cc12", "note": "(single isomer, unassigned) [Compound 47, (2S,4S)-1-[4-({8-[(2R,3S)-3-(methanesulfonylmethyl)-2-methylazetidin-1-yl]-5-(propan-2-yl)isoquinolin-3-yl}amino)pyrimidin-2-yl]-2-methylpiperidin-4-ol or (2R,4R)-1-[4-({8-[(2R,3S)-3-(methanesulfonylmethyl)-2-methylazetidin-1-yl]-5-(propan-2-yl)isoquinolin-3-yl}amino)pyrimidin-2-yl]-2-methylpiperidin-4-ol]", "values": [{"measurement": "IC50", "setting": "EGFR (L858R T790M C797S)", "value": "15.1 to 20", "unit": "nM"}, {"measurement": "IC50", "setting": "[1]; [2]", "value": "≤ 10", "unit": "nM"}]}
{"smiles": "CCS(=O)(=O)C[C@H]1CN(c2ccc(C(C)C)c3cc(Nc4ccnc(N5CC[C@@H](OC)[C@@H](O)C5)n4)ncc23)[C@@H]1C", "note": "(single isomer, unassigned) [Compound 176, (3S,4R)-1-[4-({8-[(2R,3S)-3-[(ethanesulfonyl)methyl]-2-methylazetidin-1-yl]-5-(propan-2-yl)isoquinolin-3-yl}amino)pyrimidin-2-yl]-4-methoxypiperidin-3-ol, or (3R,4S)-1-[4-({8-[(2R,3S)-3-[(ethanesulfonyl)methyl]-2-methylazetidin-1-yl]-5-(propan-2-yl)isoquinolin-3-yl}amino)pyrimidin-2-yl]-4-methoxypiperidin-3-ol]", "values": [{"measurement": "IC50", "setting": "EGFR (L858R T790M C797S)", "value": "≤ 15", "unit": "nM"}, {"measurement": "IC50", "setting": "[1]; [2]", "value": "≤ 10", "unit": "nM"}]}
{"smiles": "CO[C@@H]1CCN(c2nccc(Nc3cc4c(C(C)C)cnc(N5CC(CS(C)(=O)=O)C5)c4cn3)n2)C[C@@H]1F", "note": "[Compound 72, N-{2-[(3S,4R)-3-fluoro-4-methoxypiperidin-1-yl]pyrimidin-4-yl}-8-[3-(methanesulfonylmethyl)azetidin-1-yl]-5-(propan-2-yl)-2,7-naphthyridin-3-amine]", "values": [{"measurement": "IC50", "setting": "EGFR (L858R T790M C797S)", "value": "≤ 15", "unit": "nM"}, {"measurement": "IC50", "setting": "[1]; [2]", "value": "≤ 10", "unit": "nM"}]}
{"smiles": "[2H]C([2H])([2H])O[C@H]1CCN(c2nccc(Nc3cc4c(C(C)C)cnc(N5C[C@H](CS(C)(=O)=O)[C@H]5C)c4cn3)n2)C[C@H]1F", "note": "(single isomer, unassigned) [Compound 285]", "values": [{"measurement": "IC50", "setting": "EGFR (L858R T790M C797S)", "value": "≤ 15", "unit": "nM"}, {"measurement": "IC50", "setting": "[1]; [2]", "value": "≤ 10", "unit": "nM"}]}
{"smiles": "CC(C)c1ccc(N2CC(CS(C)(=O)=O)C2)c2cnc(Nc3ccnc(N4C[C@H]5CC[C@@H](C4)[C@@H]5O)n3)cc12", "note": "[Compound 39, Rac (1R,5S,8S)-3-[4-({8-[3-(methanesulfonylmethyl)azetidin-1-yl]-5-(propan-2-yl)isoquinolin-3-yl}amino)pyrimidin-2-yl]-3-azabicyclo[3.2.1]octan-8-ol]", "values": [{"measurement": "IC50", "setting": "EGFR (L858R T790M C797S)", "value": "≤ 15", "unit": "nM"}, {"measurement": "IC50", "setting": "[1]; [2]", "value": "30.1 to 50", "unit": "nM"}]}
{"smiles": "CO[C@@H]1[C@H](O)CN(c2nccc(Nc3cc4c(C(C)C)ccc(N5CC(CS(C)(=O)=O)C5)c4cn3)n2)CC1(F)F", "note": "(single isomer, unassigned) [Compound 291, (3R,4R)-5,5-difluoro-1-[4-({8-[3-(methanesulfonylmethyl)azetidin-1-yl]-5-(propan-2-yl)isoquinolin-3-yl}amino)pyrimidin-2-yl]-4-methoxypiperidin-3-ol or (3S,4S)-5,5-difluoro-1-[4-({8-[3-(methanesulfonylmethyl)azetidin-1-yl]-5-(propan-2-yl)isoquinolin-3-yl}amino)pyrimidin-2-yl]-4-methoxypiperidin-3-ol]", "values": [{"measurement": "IC50", "setting": "EGFR (L858R T790M C797S)", "value": "≤ 15", "unit": "nM"}, {"measurement": "IC50", "setting": "[1]; [3]", "value": "≤ 10", "unit": "nM"}]}
{"smiles": "CC(C)c1ccc(N2CC(CS(C)(=O)=O)C2)c2cnc(Nc3ccnc(N4CC5CCC(C4)O5)n3)cc12", "note": "[Compound 12, 8-[3-(methanesulfonylmethyl)azetidin-1-yl]-N-(2-{8-oxa-3-azabicyclo[3.2.1]octan-3-yl}pyrimidin-4-yl)-5-(propan-2-yl)isoquinolin-3-amine]", "values": [{"measurement": "IC50", "setting": "EGFR (L858R T790M C797S)", "value": "≤ 15", "unit": "nM"}, {"measurement": "IC50", "setting": "[1]; [2]", "value": "30.1 to 50", "unit": "nM"}]}
{"smiles": "CC(CF)c1ccc(N2CC(CS(C)(=O)=O)C2)c2cnc(Nc3ccnc(N4CC[C@@H](O)[C@@](C)(F)C4)n3)cc12", "note": "(single isomer, unassigned) [Compound 154]", "values": [{"measurement": "IC50", "setting": "EGFR (L858R T790M C797S)", "value": "≤ 15", "unit": "nM"}, {"measurement": "IC50", "setting": "[1]; [2]", "value": "20.1 to 30", "unit": "nM"}]}
{"smiles": "COC1CCN(c2nccc(Nc3cc4c(C(C)C)cnc(N5CC(CS(C)(=O)=O)C5)c4cn3)n2)CC1", "note": "[Compound 22, 8-[3-(methanesulfonylmethyl)azetidin-1-yl]-N-[2-(4-methoxypiperidin-1-yl)pyrimidin-4-yl]-5-(propan-2-yl)-2,7-naphthyridin-3-amine]", "values": [{"measurement": "IC50", "setting": "EGFR (L858R T790M C797S)", "value": "≤ 15", "unit": "nM"}, {"measurement": "IC50", "setting": "[1]; [2]", "value": "≤ 10", "unit": "nM"}]}
{"smiles": "CCS(=O)(=O)C[C@H]1CN(c2ccc(C(C)C)c3cc(Nc4ccnc(N5CC[C@@H](OCCO)C(F)(F)C5)n4)ncc23)[C@@H]1C", "note": "(single isomer, unassigned) [Compound 303, 2-{[(4S)-1-[4-({8-[(2R,3S)-3-[(ethanesulfonyl)methyl]-2-methylazetidin-1-yl]-5-(propan-2-yl)isoquinolin-3-yl}amino)pyrimidin-2-yl]-3,3-difluoropiperidin-4-yl]oxy}ethan-1-ol or 2-{[(4R)-1-[4-({8-[(2R,3S)-3-[(ethanesulfonyl)methyl]-2-methylazetidin-1-yl]-5-(propan-2-yl)isoquinolin-3-yl}amino)pyrimidin-2-yl]-3,3-difluoropiperidin-4-yl]oxy}ethan-1-ol]", "values": [{"measurement": "IC50", "setting": "EGFR (L858R T790M C797S)", "value": "15.1 to 20", "unit": "nM"}, {"measurement": "IC50", "setting": "[1]; [3]", "value": "≤ 10", "unit": "nM"}]}
{"smiles": "C[C@@H]1[C@@H](CS(C)(=O)=O)CN1c1cccc2cc(Nc3ccnc(N4C[C@@H](F)[C@@H](O)[C@](C)(F)C4)n3)ncc12", "note": "(single isomer, unassigned) [Compound 35, (3R,4R,5R)-3,5-difluoro-1-[4-({8-[(2R,3S)-3-(methanesulfonylmethyl)-2-methylazetidin-1-yl]isoquinolin-3-yl}amino)pyrimidin-2-yl]-3-methylpiperidin-4-ol or (3S,4S,5S)-3,5-difluoro-1-[4-({8-[(2R,3S)-3-(methanesulfonylmethyl)-2-methylazetidin-1-yl]isoquinolin-3-yl}amino)pyrimidin-2-yl]-3-methylpiperidin-4-ol]", "values": [{"measurement": "IC50", "setting": "EGFR (L858R T790M C797S)", "value": "≤ 15", "unit": "nM"}, {"measurement": "IC50", "setting": "[1]; [2]", "value": "30.1 to 50", "unit": "nM"}]}
